Where two headings read alike, the source gives them in different places.
Columns and labels:
Format in all cases: cell-based
RPEMYC^H2B-GFP cells [1] = assay: Mechanism-informed phenotypic screening assay (mitotic arrest, polyploidy; GE IN-Cell Analyzer 2000); details: 20 nM to 20 μM, 24, 48 or 72 hours, read-out: Min. Effective conc. for polyploidy (≥5%)
Protocol: We have Previously Developed a Mechanism-Informed Phenotypic Screening Assay to identify novel antimitotic agents (Li et al. 2019). Equipped with a prior understanding of the versatile functions of the chromosomal passenger protein (CPP) complex in orchestrating karyokinesis and cytokinesis, the screening assay is to score for phenotypes typically seen when the CPP complex is disabled. Specifically, the parameters for a positive hit are a temporary elevation of mitotic index (MI) at 24 hours of drug treatment and an accumulation of polyploid cells at 48 hours of drug treatment, indicative of mitotic arrest and cytokinetic failure respectively. These parameters exclude compounds that elicit only a prolonged arrest of cells in mitosis, a phenotype typically provoked by spindle toxins. The screening procedure is briefly summarized here. RPEMYC^H2B-GFP cells engineered to express a Histone 2B-EGFP fusion protein were passaged as batches of 96-well plates, 18-24 hours before exposure to the chemical compounds of the present disclosure at concentrations from 20 nM to 20 μM. At 24, 48 or 72 hours after initiation of treatment, cells were analyzed for either an arrest in mitosis or a change in DNA content by GE IN-Cell Analyzer 2000. As set forth in table 2 below, a value of greater than or equal to […] and less than or equal to 1.0 μM is marked e “A”; a value greater than […] and less than or equal to 10.0 μM is marked “B”; a value greater than 10.0 μM and less than or equal to 30.0 μM is marked “C”; and a value greater than 30.0 μM is marked “D.”

RPEMYC^H2B-GFP cells [2] = assay: as above; details: 20 nM to 20 μM, 24, 48 or 72 hours, read-out: Mitotic Arrest (≥5%)
[3] = system: gastric cancer cell line NCI-N87; assay: MTT assay of cellular proliferation, NCI-N87; details: Homo sapiens, read-out: EC50: Concentration that inhibits 50% of proliferation
Protocol: (§1) Six lung cancer cell lines (NCI-H23, NCI-H460, NCI-H596, NCI-H2170, Calu-6 and A549), two colon cancer cell lines (HCT116 and SW460), one breast cancer cell line MDA-MB-231, one gastric cancer cell line NCI-N87, one prostate cancer cell line DU145, one cervical cancer cell line Hela, and one glioblastoma cell line T98G were obtained from ATCC. The T2 HCC cell line was derived from a mouse liver cancer model initiated by a transgene of MYC (Reference). All cell lines were cultured in DMEM (Gibco, Cleveland, TN, USA) supplemented with 5% fetal bovine serum (Gibco), penicillin (100 U/mL)-streptomycin (100 μg/mL) (Gibco, Cat. No. 15140-122), 2 mM L-glutamine (Gibco, 200 mM solution, Cat. No. 25030081), and 1 mM sodium pyruvate (Gibco, 100 mM solution, Cat. No. 11360070) at 37° C. in a humidified incubator that was maintained at 5% CO2.
(§2) The MTT assay measures cellular metabolic activity as a proxy for cell viability and involves the conversion of the water-soluble yellow dye MTT [3-(4,5-dimethylthiazol-2-yl)-2,5-diphenyltetrazolium bromide] into an insoluble purple formazan by the action of mitochondrial reductase. Formazan is then solubilized and its concentration is determined by measuring the optical density (OD) value at a wavelength of 570 nm. The value is in proportional to the number of live cells with excellent linearity up to ˜10^6 cells per well. The MTT assay was used to determine the EC50 value, the concentration of a compound that leads to 50% inhibition of cellular proliferation. Briefly, cells were split when growing to the mid-Log phase. Cells in 100 μL of culture medium were seeded into each well of 96-well microplates and cultivated for 15˜24 hours to reach a confluence of 20˜30% and were then exposed to drugs at concentrations ranging from 1 nM to 10 μM. At the endpoint, 20 μL of a MTT stock solution in DMSO (5 mg/mL) was added to each well that contains […] of DMEM. The microplates were left in the cell culture incubator for 3˜4 h before subjected to solubilization and determination of formazan at A570 in a microplate reader (BioTek ELX808iu). […] Therefore, these compounds might hold a broad utility in the treatment of a large variety of human malignancies.

[4] = system: lung cancer cell line NCI-H23; assay: MTT assay of cellular proliferation, NCI-H23; details: Homo sapiens, read-out: EC50: Concentration that inhibits 50% of proliferation
Protocol: as §1, §2

[5] = system: lung cancer cell line A549; assay: Minimal effective concentration that elicits polyploidy, A549; details: Homo sapiens, read-out: MECP: Minimal effective concentration that elicits polyploidy
[6] = system: lung cancer cell line A549; assay: MTT assay of cellular proliferation, A549; details: Homo sapiens, read-out: EC50: Concentration that inhibits 50% of proliferation
Protocol: as §1, §2

[7] = system: breast cancer cell line MDA-MB-231; assay: Minimal effective concentration that elicits polyploidy, MDA-MB-231; details: Homo sapiens, read-out: MECP: Minimal effective concentration that elicits polyploidy
[8] = system: colon cancer cell line SW460; assay: MTT assay of cellular proliferation, SW460; details: Homo sapiens, SW480; read-out: EC50: Concentration that inhibits 50% of proliferation
Protocol: as §1, §2

[9] = system: liver cancer cell line T2 HCC; assay: Minimal effective concentration that elicits polyploidy, T2 HCC; details: Mus musculus, read-out: MECP: Minimal effective concentration that elicits polyploidy
[10] = system: lung cancer cell line NCI-H23; assay: Minimal effective concentration that elicits polyploidy, NCI-H23; details: Homo sapiens, read-out: MECP: Minimal effective concentration that elicits polyploidy
SW480 = assay: Minimal effective concentration that elicits polyploidy, SW480; details: Homo sapiens, read-out: MECP: Minimal effective concentration that elicits polyploidy
[11] = system: gastric cancer cell line NCI-N87; assay: Minimal effective concentration that elicits polyploidy, NCI-N87; details: Homo sapiens, read-out: MECP: Minimal effective concentration that elicits polyploidy
[12] = system: cervical cancer cell line Hela; assay: MTT assay of cellular proliferation, Hela; details: Homo sapiens, read-out: EC50: Concentration that inhibits 50% of proliferation
Protocol: as §1, §2

[13] = system: breast cancer cell line MDA-MB-231; assay: MTT assay of cellular proliferation, MDA-MB-231; details: Homo sapiens, read-out: EC50: Concentration that inhibits 50% of proliferation
Protocol: as §1, §2

[14] = system: cervical cancer cell line Hela; assay: Minimal effective concentration that elicits polyploidy, Hela; details: Homo sapiens, read-out: MECP: Minimal effective concentration that elicits polyploidy
[15] = system: colon cancer cell line HCT116; assay: Minimal effective concentration that elicits polyploidy, HCT116; details: Homo sapiens, HCT-116, read-out: MECP: Minimal effective concentration that elicits polyploidy
[16] = system: colon cancer cell line HCT116; assay: MTT assay of cellular proliferation, HCT116; details: Homo sapiens, HCT-116, read-out: EC50: Concentration that inhibits 50% of proliferation
Protocol: as §1, §2

[17] = system: liver cancer cell line T2 HCC; assay: MTT assay of cellular proliferation, T2 HCC; details: Mus musculus, read-out: EC50: Concentration that inhibits 50% of proliferation
Protocol: as §1, §2

Structure (SMILES): COc1cc(Oc2ncccc2-c2ccncc2)cc(C(=O)O)c1 [Compound 3, 3-([3,4′-bipyridin]-2-yloxy)-5-methoxybenzoic acid]
- minimal effective concentration (RPEMYC^H2B-GFP cells [1]): > 30 µM
- minimal effective concentration (RPEMYC^H2B-GFP cells [2]): > 30 µM
- EC50 [3]: 1 to 1000 nM
- EC50 [4]: 1 to 1000 nM
- minimal effective concentration [5]: 0.001 to 1 µM
- EC50 [6]: 1 to 1000 nM
- minimal effective concentration [7]: 0.001 to 1 µM
- EC50 [8]: 1 to 1000 nM
- minimal effective concentration [9]: 0.001 to 1 µM
- minimal effective concentration [10]: 0.001 to 1 µM
- minimal effective concentration (SW480): 0.001 to 1 µM
- minimal effective concentration [11]: 0.001 to 1 µM
- EC50 [12]: 1 to 1000 nM
- EC50 [13]: 1 to 1000 nM
- minimal effective concentration [14]: 0.001 to 1 µM
- minimal effective concentration [15]: 0.001 to 1 µM
- EC50 [16]: 1 to 1000 nM
- EC50 [17]: 1 to 1000 nM

Structure (SMILES): COC(=O)c1cc(OC)cc(Oc2nccnc2-c2ccncc2)c1 [Compound 17]
- minimal effective concentration (RPEMYC^H2B-GFP cells [1]): 1 µM
- minimal effective concentration (RPEMYC^H2B-GFP cells [2]): 1 µM
- EC50 [3]: 1 to 1000 nM
- EC50 [4]: 1 to 1000 nM
- minimal effective concentration [5]: 0.001 to 1 µM
- EC50 [6]: 10000 to 30000 nM
- minimal effective concentration [7]: 0.001 to 1 µM
- minimal effective concentration [9]: 0.001 to 1 µM
- minimal effective concentration [10]: 0.001 to 1 µM
- minimal effective concentration [11]: 0.001 to 1 µM
- EC50 [12]: 1 to 1000 nM
- EC50 [13]: 1 to 1000 nM
- minimal effective concentration [14]: 0.001 to 1 µM
- minimal effective concentration [15]: 0.001 to 1 µM
- EC50 [16]: 1 to 1000 nM
- EC50 [17]: 1 to 1000 nM

Structure (SMILES): CCOCCOc1cc(-c2cccnc2Oc2cc(NC(C)=O)cc(OC)c2)ccn1 [Compound 87, N-(3-((2′-(2-ethoxyethoxy)-[3,4′-bipyridin]-2-yl)oxy)-5-methoxyphenyl)acetamide]
- minimal effective concentration (RPEMYC^H2B-GFP cells [1]): 1 µM
- minimal effective concentration (RPEMYC^H2B-GFP cells [2]): 1 µM

Structure (SMILES): CNC(=O)c1cc(Oc2ncccc2-c2ccnc(C)c2)cc(-n2cccn2)c1 [Compound 88, N-methyl-3-((2′-methyl-[3,4′-bipyridin]-2-yl)oxy)-5-(1H-pyrazol-1-yl)benzamide]
- minimal effective concentration (RPEMYC^H2B-GFP cells [1]): 1 µM
- minimal effective concentration (RPEMYC^H2B-GFP cells [2]): 1 µM

Structure (SMILES): CNC(=O)c1cc(Oc2ncccc2-c2ccnc(C)c2)cc(-c2cnn(C)c2)c1 [Compound 89, N-methyl-3-(1-methyl-1H-pyrazol-4-yl)-5-((2′-methyl-[3,4′-bipyridin]-2-yl)oxy)benzamide]
- minimal effective concentration (RPEMYC^H2B-GFP cells [1]): 1 µM
- minimal effective concentration (RPEMYC^H2B-GFP cells [2]): 1 µM

Structure (SMILES): CNC(=O)c1cc(Oc2ncccc2-c2ccncc2)cc(-c2cnn(C)c2)c1 [Compound 90, 3-([3,4′-bipyridin]-2-yloxy)-N-methyl-5-(1-methyl-1H-pyrazol-4-yl)benzamide]
- minimal effective concentration (RPEMYC^H2B-GFP cells [1]): 1 µM
- minimal effective concentration (RPEMYC^H2B-GFP cells [2]): 1 µM

Structure (SMILES): CNC(=O)c1cc(OC)cc(Oc2ncccc2-c2cncnc2)c1 [Compound 91, 3-methoxy-N-methyl-5-((3-(pyrimidin-5-yl)pyridin-2-yl)oxy)benzamide]
- minimal effective concentration (RPEMYC^H2B-GFP cells [1]): 1 µM
- minimal effective concentration (RPEMYC^H2B-GFP cells [2]): 1 µM

Structure (SMILES): CNC(=O)c1cc(OC)cc(Oc2ncccc2-c2cccc(F)c2)c1 [Compound 92, 3-((3-(3-fluorophenyl)pyridin-2-yl)oxy)-5-methoxy-N-methylbenzamide]
- minimal effective concentration (RPEMYC^H2B-GFP cells [1]): 1 µM
- minimal effective concentration (RPEMYC^H2B-GFP cells [2]): 1 µM

Structure (SMILES): COc1cc(Oc2ncccc2-c2ccncc2)cc(O[C@H]2CCOC2)c1 [Compound 94, (S)-2-(3-methoxy-5-((tetrahydrofuran-3-yl)oxy)phenoxy)-3,4′-bipyridine]
- minimal effective concentration (RPEMYC^H2B-GFP cells [1]): 1 µM
- minimal effective concentration (RPEMYC^H2B-GFP cells [2]): 1 µM

Structure (SMILES): COc1cc(Oc2ncccc2-c2ccnc(C)c2)cc(O[C@H]2CCOC2)c1 [Compound 95, (S)-2-(3-methoxy-5-((tetrahydrofuran-3-yl)oxy)phenoxy)-2′-methyl-3,4′-bipyridine]
- minimal effective concentration (RPEMYC^H2B-GFP cells [1]): 1 µM
- minimal effective concentration (RPEMYC^H2B-GFP cells [2]): 1 µM

Structure (SMILES): CNC(=O)c1cc(Oc2ncccc2-c2ccnc(C)c2)cc(OC2CCOC2)c1 (centres unmarked) [Compound 96, N-methyl-3-((2′-methyl-[3,4′-bipyridin]-2-yl)oxy)-5-((tetrahydrofuran-3-yl)oxy)benzamide]
- minimal effective concentration (RPEMYC^H2B-GFP cells [1]): 1 µM
- minimal effective concentration (RPEMYC^H2B-GFP cells [2]): 1 µM

Structure (SMILES): CNC(=O)c1cc(OC)cc(Oc2ncccc2-c2cc(C)ncn2)c1 [Compound 97, 3-methoxy-N-methyl-5-((3-(6-methylpyrimidin-4-yl)pyridin-2-yl)oxy)benzamide]
- minimal effective concentration (RPEMYC^H2B-GFP cells [1]): 1 µM
- minimal effective concentration (RPEMYC^H2B-GFP cells [2]): 1 µM

Structure (SMILES): COc1cc(Oc2ncccc2-c2ccnc(C)c2)cc(C(=O)NC2CC2)c1 [Compound 98, N-cyclopropyl-3-methoxy-5-((2′-methyl-[3,4′-bipyridin]-2-yl)oxy)benzamide]
- minimal effective concentration (RPEMYC^H2B-GFP cells [1]): 1 µM
- minimal effective concentration (RPEMYC^H2B-GFP cells [2]): 1 µM

Structure (SMILES): CNC(=O)c1cc(OC)cc(Oc2ncccc2-c2cc(C)nc(C)c2)c1 [Compound 99, 3-((2′,6′-dimethyl-[3,4′-bipyridin]-2-yl)oxy)-5-methoxy-N-methylbenzamide]
- minimal effective concentration (RPEMYC^H2B-GFP cells [1]): 1 µM
- minimal effective concentration (RPEMYC^H2B-GFP cells [2]): 1 µM

Structure (SMILES): COc1cc(Oc2ncccc2-c2ccncc2)cc(C(=O)NC2CC2)c1 [Compound 100, 3-([3,4′-bipyridin]-2-yloxy)-N-cyclopropyl-5-methoxybenzamide]
- minimal effective concentration (RPEMYC^H2B-GFP cells [1]): 1 µM
- minimal effective concentration (RPEMYC^H2B-GFP cells [2]): 1 µM

Structure (SMILES): CNC(=O)c1cc(Oc2ncccc2-c2ccncc2)cc(OC2CCOC2)c1 (centres unmarked) [Compound 101, 3-([3,4′-bipyridin]-2-yloxy)-N-methyl-5-((tetrahydrofuran-3-yl)oxy)benzamide]
- minimal effective concentration (RPEMYC^H2B-GFP cells [1]): 1 µM
- minimal effective concentration (RPEMYC^H2B-GFP cells [2]): 1 µM
